Laboratory results from patent US7855177B1, “Methods and kits for preventing hypoglycemia” (Cebix Inc., priority 2009, dated 2010).

Test system: type 1 diabetes patients with peripheral neuropathy
Test: Phase II trial: adverse events
Conditions: for Total treatment emergent AEs of any severity, number / Total treatment emergent AEs possibly related to study drug, number: all SOCs; for Total Adverse Events, Moderate / Total Adverse Events, Severe: ITT data set, number of treatment emergent AEs
[1] = High-dose C-peptide, SOC Blood and lymphatic system disorder
[2] = High-dose C-peptide, SOC Eye disorder
[3] = High-dose C-peptide, SOC Gastro-intestinal Disorders
[4] = High-dose C-peptide, SOC General disorders and administration site conditions
[5] = High-dose C-peptide, SOC Infections and infestations
[6] = High-dose C-peptide, SOC Injury poisoning, procedural complications
[7] = High-dose C-peptide, SOC Investigations
[8] = High-dose C-peptide, SOC Metabolism and nutritional disorders
[9] = High-dose C-peptide, SOC Musculoskeletal and connective tissue disorder
[10] = High-dose C-peptide, SOC Nervous system disorders
[11] = High-dose C-peptide, SOC Reproductive system and breast disorders
[12] = High-dose C-peptide, SOC Respiratory, thoracic, and mediastinal disorders
[13] = High-dose C-peptide, SOC Skin and subcutaneous tissue disorders
[14] = High-dose C-peptide, SOC Surgical and Medical
[15] = High-dose C-peptide, SOC Vascular disorders
[16] = Low-dose C-peptide, SOC Cardiac disorder
[17] = Low-dose C-peptide, SOC Eye disorder
[18] = Low-dose C-peptide, SOC Gastro-intestinal Disorders
[19] = Low-dose C-peptide, SOC Immune system disorders
[20] = Low-dose C-peptide, SOC Infections and infestations
[21] = Low-dose C-peptide, SOC Injury poisoning, procedural complications
[22] = Low-dose C-peptide, SOC Investigations
[23] = Low-dose C-peptide, SOC Metabolism and nutritional disorders
[24] = Low-dose C-peptide, SOC Musculoskeletal and connective tissue disorder
[25] = Low-dose C-peptide, SOC Nervous system disorders
[26] = Low-dose C-peptide, SOC Psychiatric disorders
[27] = Low-dose C-peptide, SOC Skin and subcutaneous tissue disorders
[28] = Low-dose C-peptide, SOC Surgical and Medical

Method: The safety measurements comprised collection of AEs, spontaneously reported by the patient or recorded by the investigator at each clinical visit. Review of laboratory investigations, vital signs, and physical examinations was performed at the S/B visit, visit 2, and at end of study (visit 4). ECG was performed at the S/B visit and at visit 4.
An AE was classified as “unexpected event” (i.e., if not specifically listed in the Investigator's Brochure) in terms of nature, severity, or frequency. All AEs, including intercurrent illnesses and increased severity or frequency of sign/symptoms of a concomitant disease was reported and documented as described below. AEs were documented on an “Adverse Event/Serious Adverse Event” page of the CRF and in the patient's medical records. Any AE occurring at any time after the end of the study, considered to be caused by the study medication—and therefore a possible adverse drug reaction—was reported to the sponsor.
The period of observation for AEs extended from the time the patient started on trial medication until end of the study. AEs were divided into the categories “serious” and “non-serious”. This determined the procedure used to report/document the AE.
Regardless of the classification of an AE as serious or non-serious (see above), its severity was assessed as mild, moderate, or severe, according to medical criteria alone:
Descriptive statistics were used for safety variables. For lab parameters summary statistics were presented as change from baseline and between doses. The changes from baseline were calculated and compared with normal ranges. The safety analysis set included all patients who obtained at least one dose of the investigational drug. AEs were coded according to the MedDRA dictionary. The frequencies of AEs are tabulated by body system and included/preferred term.

SMILES: CC(C)C[C@H](NC(=O)[C@H](C)NC(=O)[C@H](CC(C)C)NC(=O)[C@@H]1CCCN1C(=O)[C@H](CCC(N)=O)NC(=O)[C@H](CC(C)C)NC(=O)[C@H](CO)NC(=O)CNC(=O)[C@H](C)NC(=O)CNC(=O)[C@@H]1CCCN1C(=O)CNC(=O)CNC(=O)CNC(=O)[C@H](CC(C)C)NC(=O)[C@H](CCC(=O)O)NC(=O)[C@@H](NC(=O)[C@H](CCC(N)=O)NC(=O)CNC(=O)[C@@H](NC(=O)[C@H](CCC(N)=O)NC(=O)[C@H](CC(C)C)NC(=O)[C@H](CC(=O)O)NC(=O)[C@H](CCC(=O)O)NC(=O)[C@H](C)NC(=O)[C@@H](N)CCC(=O)O)C(C)C)C(C)C)C(=O)N[C@@H](CCC(=O)O)C(=O)NCC(=O)N[C@@H](CO)C(=O)N[C@@H](CC(C)C)C(=O)N[C@@H](CCC(N)=O)C(=O)O [C-peptide]
- tolerability (500-1,500 nmoL/24 h): well tolerated
- Anemia, number of AEs [1]: 1
- Hemorrhage, number of AEs [1]: 1
- Macular edema, number of AEs [2]: 1
- Vitreous hemorrhage, number of AEs [2]: 1
- Abdominal pain, number of AEs [3]: 3
- Aptyalism, number of AEs [3]: 1
- Diarrhea, number of AEs [3]: 1
- Gastritis, number of AEs [3]: 1
- Nausea, number of AEs [3]: 4
- Tooth ache, number of AEs [3]: 3
- Chest pain, number of AEs [4]: 2
- Fatigue, number of AEs [4]: 2
- Feeling abnormal, number of AEs [4]: 3
- Injection site burning, number of AEs [4]: 1 (1)
- Injection site burning, number of AEs possibly related to study drug [4]: 1 (1)
- Gastroenteritis, number of AEs [5]: 7
- Otitis, number of AEs [5]: 2
- Pharyngitis, number of AEs [5]: 2
- Sepsis, number of AEs [5]: 1
- Sinusitis, number of AEs [5]: 2
- Skin infection, number of AEs [5]: 1
- Tonsilitis, number of AEs [5]: 2
- Tooth infection, number of AEs [5]: 2
- Upper respiratory tract infection, number of AEs [5]: 1
- Urinary tract infection, number of AEs [5]: 1
- Blister, number of AEs [6]: 2
- Dizziness, number of AEs [6]: 1
- Eye injury, number of AEs [6]: 1
- Food poisoning, number of AEs [6]: 1
- Joint sprain ankle, number of AEs [6]: 1
- Knee injury, number of AEs [6]: 1
- Rib fracture/injury, number of AEs [6]: 2
- Scar, number of AEs [6]: 1
- Tooth injury, number of AEs [6]: 1
- Cardiac murmur, number of AEs [7]: 1
- Hematuria, number of AEs [7]: 1
- Hepatic enzyme increase, number of AEs [7]: 2
- Hypercalcemia, number of AEs [7]: 1
- Leucopenia, number of AEs [7]: 1
- Lymph node enlargement, number of AEs [7]: 1
- Hyperglycemia, number of AEs [8]: 1
- Hypoglycemia, number of AEs [8]: 5
- Hypoglycemia, number of AEs possibly related to study drug [8]: 1
- Hypoglycemic coma, number of AEs [8]: 2
- Vitamin B12 deficiency, number of AEs [8]: 1
- Arthralgia, number of AEs [9]: 3
- Arthritis, number of AEs [9]: 1
- Arthropathy, number of AEs [9]: 1
- Back pain, number of AEs [9]: 2
- Epicondylitis, number of AEs [9]: 1
- Muscle spasm, number of AEs [9]: 1
- Muscular atrophy, number of AEs [9]: 1
- Myalgia, number of AEs [9]: 1
- Pain in extremity, number of AEs [9]: 4
- Pain in shoulder, number of AEs [9]: 1
- Tendinitis, number of AEs [9]: 1
- Tendosynovitis, number of AEs [9]: 1
- Torticollis, number of AEs [9]: 1
- Burning sensation, number of AEs [10]: 1
- Headache, number of AEs [10]: 17
- Hyperaesthesia, number of AEs [10]: 1 (1)
- Hyperaesthesia, number of AEs possibly related to study drug [10]: 1 (1)
- Migraine, number of AEs [10]: 1
- Paraesthesia, number of AEs [10]: 2 (2)
- Paraesthesia, number of AEs possibly related to study drug [10]: 2 (2)
- Restless legs syndrome, number of AEs [10]: 1
- Sciatica, number of AEs [10]: 1
- Sensory loss, number of AEs [10]: 1
- Vertigo, number of AEs [10]: 1
- Pregnancy, number of AEs (High-dose C-peptide, SOC Pregnancy, puerperium and perinatal conditions): 2
- Menopausal disorder, number of AEs [11]: 1
- Menstration irregular, number of AEs [11]: 1
- Cough, number of AEs [12]: 1
- Epistaxis, number of AEs [12]: 1
- Skin induration, number of AEs [13]: 1
- Skin infection, number of AEs [13]: 2
- Sweating increased, number of AEs [13]: 1
- Limb operation, number of AEs [14]: 1
- Tooth extraction, number of AEs [14]: 1
- Arterial disorder, number of AEs [15]: 1
- Hypertension, number of AEs [15]: 1
- Hypotension, number of AEs [15]: 1
- Total treatment emergent AEs of any severity, number (High-dose C-peptide): 156
- Total treatment emergent AEs possibly related to study drug, number (High-dose C-peptide): 5
- Anemia, number of AEs (Low-dose C-peptide, SOC Blood and lymphatic system disorder): 1
- Cardiac arrhythmia, number of AEs [16]: 1
- ST elevation (ECG), number of AEs [16]: 1
- Tachycardia (stress, number of AEs) [16]: 1
- Dacryocanaliculitis, number of AEs [17]: 1
- Vision decreased, number of AEs [17]: 1
- Celiac disease, number of AEs [18]: 1
- Diarrhea, number of AEs [18]: 2
- Flatulence, number of AEs [18]: 1
- Nausea, number of AEs [18]: 1
- Reflux gastritis, number of AEs [18]: 2
- Tooth ache, number of AEs [18]: 2
- Pyrexia, number of AEs (Low-dose C-peptide, SOC General disorders and administration site conditions): 3
- Allergic urticaria, number of AEs [19]: 1
- Dermatitis allergic, number of AEs [19]: 1
- Rheumarthritis, number of AEs [19]: 1
- Season allergy, number of AEs [19]: 1
- Borrelia infection, number of AEs [20]: 1
- Bronchitis, number of AEs [20]: 1
- Candidiasis, number of AEs [20]: 2
- Gastroenteritis, number of AEs [20]: 2
- Herpes simplex, number of AEs [20]: 1
- Herpeszoster, number of AEs [20]: 1
- Influenza, number of AEs [20]: 1
- Nasopharyngitis, number of AEs [20]: 31
- Otitis, number of AEs [20]: 1
- Pharyngitis, number of AEs [20]: 1
- Sinusitis, number of AEs [20]: 4
- Skin infection, number of AEs [20]: 5
- Tonsilitis, number of AEs [20]: 1
- Upper respiratory tract infection, number of AEs [20]: 3
- Urinary tract infection, number of AEs [20]: 3
- Joint sprain ankle, number of AEs [21]: 1
- Rib fracture/injury, number of AEs [21]: 1
- Skin injury, number of AEs [21]: 2
- Elevated serum, number of AEs [22]: 1
- Hepatic enzyme increase, number of AEs [22]: 2
- Hepatic enzyme increase, number of AEs possibly related to study drug [22]: 1
- Hyperkalaemia, number of AEs [22]: 1
- Weight increased, number of AEs [22]: 1
- Hyperglycemia, number of AEs [23]: 1 (1)
- Hyperglycemia, number of AEs possibly related to study drug [23]: 1 (1)
- Hyperlipidemia, number of AEs [23]: 1
- Hypoglycemia, number of AEs [23]: 2
- Hypoglycemia, number of AEs possibly related to study drug [23]: 1
- Hypoglycemic coma, number of AEs [23]: 2
- Insulin sensitivity, number of AEs [23]: 1 (1)
- Insulin sensitivity, number of AEs possibly related to study drug [23]: 1 (1)
- Arthralgia, number of AEs [24]: 3
- Arthritis, number of AEs [24]: 1
- Arthropathy, number of AEs [24]: 2
- Epicondylitis, number of AEs [24]: 1
- Exostosis, number of AEs [24]: 2
- Muscle cramp, number of AEs [24]: 1
- Musculoskeletal chest, number of AEs [24]: 1
- Myalgia, number of AEs [24]: 3
- Pain in extremity, number of AEs [24]: 3
- Pain in extremity, number of AEs possibly related to study drug [24]: 1
- Pain in neck, number of AEs [24]: 1
- Synovial disorder, number of AEs [24]: 1
- Tendinous contracture, number of AEs [24]: 1
- Carpal tunnel syndrome, number of AEs [25]: 1
- Dizziness, number of AEs [25]: 2
- Headache, number of AEs [25]: 35
- Hyperthermeasthesia, number of AEs [25]: 2 (2)
- Hyperthermeasthesia, number of AEs possibly related to study drug [25]: 2 (2)
- Hypoaesthesia, number of AEs [25]: 2
- Multiple sclerosis, number of AEs [25]: 1
- Paraesthesia, number of AEs [25]: 2
- Paraesthesia, number of AEs possibly related to study drug [25]: 1
- Depression, number of AEs [26]: 1
- Panic disorder, number of AEs [26]: 1
- Stress disorder, number of AEs [26]: 1
- Asthma, number of AEs (Low-dose C-peptide, SOC Respiratory, thoracic, and mediastinal disorders): 1
- Dry skin, number of AEs [27]: 1
- Fibroma, number of AEs [27]: 1
- Skin induration, number of AEs [27]: 2
- Eye operation, number of AEs [28]: 1
- Limb operation, number of AEs [28]: 1
- Hypertension, number of AEs (Low-dose C-peptide, SOC Vascular disorders): 1
- Total treatment emergent AEs of any severity, number (Low-dose C-peptide): 173
- Total treatment emergent AEs possibly related to study drug, number (Low-dose C-peptide): 8
- local reactions (S.C. injection, 500-1,500 nmoL/24 h): No local reactions
- SAEs (high-dose C-peptide (1,500 nmoL/24 h)): Two
- AEs possibly/probably related to the study drug (high-dose C-peptide group): 5
- patients without reported AEs (high-dose C-peptide group): 6 patients
- patients with AEs (high-dose C-peptide group, 44 out of 52 patients): 85%
- Total Adverse Events, Moderate (high-dose C-peptide group): Moderate = 43
- Total Adverse Events, Severe (high-dose C-peptide group): Severe = 9
- relationship of SAEs to the trial medication (high-dose C-peptide, investigators' assessment): unlikely/not related
- patients without reported AEs (low-dose C-peptide group): 8 patients
- patients with AEs (low-dose C-peptide group, 48 out of 56 patients): 86%
- Total Adverse Events, Moderate (low-dose C-peptide group): Moderate = 51
- Total Adverse Events, Severe (low-dose C-peptide group): Severe = 1
